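Briefly, cells in 96-well plates were exposed to five compound concentrations for 48 h, and endpoints were estimated by linear interpolation. At the GI50, growth is halved.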 Active and inactive are the calls of the source. Rule as the data show it: active = GI50 up to about 1.1 µM and inactive = higher.
Tests used:
Experiment in all cases: growth of human tumour cells (NCI), 48 h
CCRF-CEM = test system: CCRF-CEM
COLO 205 = test system: COLO 205
MOLT-4 = test system: MOLT-4
Malme-3M = test system: Malme-3M
OVCAR-4 = test system: OVCAR-4
OVCAR-5 = test system: OVCAR-5
OVCAR-8 = test system: OVCAR-8
SF-268 = test system: SF-268
SF-539 = test system: SF-539
SK-MEL-2 = test system: SK-MEL-2
SK-OV-3 = test system: SK-OV-3
SN12C = test system: SN12C
SR = test system: SR
SW-620 = test system: SW-620
U-251 = test system: U-251
UACC-257 = test system: UACC-257
UACC-62 = test system: UACC-62

SMILES	GI50 (CCRF-CEM)	GI50 (COLO 205)	GI50 (MOLT-4)	GI50 (Malme-3M)	GI50 (OVCAR-4)	GI50 (OVCAR-5)	GI50 (OVCAR-8)	GI50 (SF-268)	GI50 (SF-539)	GI50 (SK-MEL-2)	GI50 (SK-OV-3)	GI50 (SN12C)	GI50 (SR)	GI50 (SW-620)	GI50 (U-251)	GI50 (UACC-257)	GI50 (UACC-62)
CC(/C=C/C(=O)c1sc(-n2nc(-c3ccccc3)cc2-c2ccccc2)nc1C)=C\c1ccccc1	27.7 µM (inactive)	> 10 µM (inactive)	9.06 µM (inactive)	35.8 µM (inactive)	7.43 µM (inactive)	> 10 µM (inactive)	17.5 µM (inactive)	72.9 µM (inactive)	52.1 µM (inactive)	34.3 µM (inactive)	38.4 µM (inactive)	40.3 µM (inactive)	27.2 µM (inactive)	> 10 µM (inactive)	65.2 µM (inactive)	47.1 µM (inactive)	40.5 µM (inactive)
COC(=O)c1ccc(OCc2ccc3nc(OC)c(OC)nc3c2)cc1	> 100 µM (inactive)	> 100 µM (inactive)	> 10 µM (inactive)	> 100 µM (inactive)	> 100 µM (inactive)	> 100 µM (inactive)	> 100 µM (inactive)	> 100 µM (inactive)	> 100 µM (inactive)	> 100 µM (inactive)		> 100 µM (inactive)	> 100 µM (inactive)	> 100 µM (inactive)	49.1 µM (inactive)	> 100 µM (inactive)	
O=C(c1cc2c(C(F)(F)F)onc2c2ccccc12)C(F)(F)F	0.34 µM (active)	3.08 µM (inactive)	1.15 µM (inactive)		3.65 µM (inactive)	6.9 µM (inactive)	1.78 µM (inactive)	2.75 µM (inactive)	3.75 µM (inactive)	3.4 µM (inactive)	12.3 µM (inactive)	0.614 µM (active)	1.41 µM (inactive)	2.68 µM (inactive)	0.371 µM (active)	5.61 µM (inactive)	2.98 µM (inactive)
CCN(CC)c1ccc2c(c1)Nc1cc(=C(C#N)C#N)c3ccccc3c1=N2		> 100 µM (inactive)	> 100 µM (inactive)	> 100 µM (inactive)	> 100 µM (inactive)	> 100 µM (inactive)	61 µM (inactive)	> 100 µM (inactive)	> 100 µM (inactive)	> 100 µM (inactive)	> 100 µM (inactive)	> 100 µM (inactive)	> 100 µM (inactive)	59 µM (inactive)	> 100 µM (inactive)	> 100 µM (inactive)	> 100 µM (inactive)
CCOC(=O)C(C#N)(Cc1c[nH]c2ccccc12)NC(C)=O (stereo unspecified)	> 100 µM (inactive)	> 100 µM (inactive)	> 100 µM (inactive)	> 100 µM (inactive)	> 100 µM (inactive)	> 100 µM (inactive)	> 100 µM (inactive)	> 100 µM (inactive)		> 100 µM (inactive)	> 100 µM (inactive)	> 100 µM (inactive)		> 100 µM (inactive)	> 100 µM (inactive)	> 100 µM (inactive)	> 100 µM (inactive)
CCN(c1ccc(Br)cc1)c1c(Br)c(=O)nc2ccccn12	> 100 µM (inactive)	> 100 µM (inactive)	> 100 µM (inactive)	64.9 µM (inactive)		> 100 µM (inactive)	> 100 µM (inactive)	> 100 µM (inactive)	> 100 µM (inactive)	> 100 µM (inactive)	51.5 µM (inactive)	> 100 µM (inactive)	> 100 µM (inactive)	> 100 µM (inactive)	> 100 µM (inactive)		65 µM (inactive)
CN(C)C(=S)/N=c1\sn(C)/c(=N\C(=S)N(C)C)n1C		> 100 µM (inactive)	> 100 µM (inactive)	19.5 µM (inactive)	> 100 µM (inactive)	> 100 µM (inactive)	> 100 µM (inactive)	> 100 µM (inactive)	> 100 µM (inactive)		> 100 µM (inactive)	> 100 µM (inactive)	> 100 µM (inactive)	> 100 µM (inactive)	85.3 µM (inactive)	> 100 µM (inactive)	32.2 µM (inactive)
C=C(CO)CC(O)c1ccccc1 (stereo unspecified)	> 100 µM (inactive)	> 100 µM (inactive)	> 100 µM (inactive)		> 100 µM (inactive)	> 100 µM (inactive)	> 100 µM (inactive)	> 100 µM (inactive)	> 100 µM (inactive)	> 100 µM (inactive)	> 100 µM (inactive)	> 100 µM (inactive)		> 100 µM (inactive)	> 100 µM (inactive)		> 100 µM (inactive)
O=C1C2CN(Cc3ccccc3)CC1CN(CC1CC1)C2	> 100 µM (inactive)	> 100 µM (inactive)	> 100 µM (inactive)	> 100 µM (inactive)	> 100 µM (inactive)	> 100 µM (inactive)	> 100 µM (inactive)	> 100 µM (inactive)	> 100 µM (inactive)	> 100 µM (inactive)	> 100 µM (inactive)	> 100 µM (inactive)		> 100 µM (inactive)	> 100 µM (inactive)	> 100 µM (inactive)	> 100 µM (inactive)
CC(=O)OCCOCNC(=S)N/N=C/c1ccc([N+](=O)[O-])o1	23 µM (inactive)	15 µM (inactive)		94.8 µM (inactive)	> 100 µM (inactive)	> 100 µM (inactive)	77.3 µM (inactive)	29.5 µM (inactive)	43.9 µM (inactive)	44.1 µM (inactive)	> 100 µM (inactive)	74.5 µM (inactive)		34.5 µM (inactive)	83.9 µM (inactive)	34.4 µM (inactive)	18.5 µM (inactive)
O=C1C(c2ccccc2)=C(c2ccccc2)C(c2ccc(CCCCCCc3ccc(C4=C(c5ccccc5)C(=O)C(c5ccccc5)=C4c4ccccc4)cc3)cc2)=C1c1ccccc1	> 100 µM (inactive)	> 100 µM (inactive)	> 100 µM (inactive)	> 100 µM (inactive)	> 100 µM (inactive)	> 100 µM (inactive)	> 100 µM (inactive)	> 100 µM (inactive)	> 100 µM (inactive)	> 100 µM (inactive)		> 100 µM (inactive)		> 100 µM (inactive)	64.6 µM (inactive)	> 100 µM (inactive)	> 100 µM (inactive)
COc1ccccc1NC(=O)C1=C(C)NC(C)=C(C(=O)Nc2ccccc2OC)C1c1ccc(C(C)C)cc1		> 100 µM (inactive)	9.18 µM (inactive)	67.6 µM (inactive)	16.8 µM (inactive)	> 100 µM (inactive)	> 100 µM (inactive)	> 100 µM (inactive)	> 100 µM (inactive)	> 100 µM (inactive)	> 100 µM (inactive)	> 100 µM (inactive)	15.5 µM (inactive)	> 100 µM (inactive)	84.3 µM (inactive)	45.2 µM (inactive)	> 100 µM (inactive)
COc1ccc(/C=N/NS(=O)(=O)c2ccccc2)cc1	> 100 µM (inactive)	> 100 µM (inactive)	> 100 µM (inactive)	> 100 µM (inactive)	> 100 µM (inactive)	> 100 µM (inactive)	> 100 µM (inactive)	> 100 µM (inactive)	> 100 µM (inactive)	> 100 µM (inactive)	> 100 µM (inactive)	> 100 µM (inactive)	> 100 µM (inactive)	> 100 µM (inactive)	> 100 µM (inactive)	> 100 µM (inactive)	> 100 µM (inactive)
Cc1nc(-n2nc(-c3ccccc3)cc2-c2ccccc2)sc1C(=O)CC(=O)C(=O)Nc1ccc(Cl)c(Cl)c1	41.3 µM (inactive)	47.3 µM (inactive)	59.6 µM (inactive)	> 100 µM (inactive)	66.4 µM (inactive)	53.8 µM (inactive)	> 100 µM (inactive)	48.5 µM (inactive)	67.1 µM (inactive)	> 100 µM (inactive)	51.3 µM (inactive)	91.6 µM (inactive)	> 100 µM (inactive)	65.9 µM (inactive)	78.2 µM (inactive)	44.5 µM (inactive)	45.8 µM (inactive)
CC[C@@H]1NC(C(=O)OC)Cc2c1[nH]c1ccccc21 (stereo partly specified)	> 100 µM (inactive)	> 100 µM (inactive)	> 100 µM (inactive)	> 100 µM (inactive)	> 100 µM (inactive)	> 100 µM (inactive)	> 100 µM (inactive)		> 100 µM (inactive)	> 100 µM (inactive)	> 100 µM (inactive)	> 100 µM (inactive)	> 100 µM (inactive)	> 100 µM (inactive)	> 100 µM (inactive)	> 100 µM (inactive)	> 100 µM (inactive)
CN1C(=O)C2C(C1=O)C1(O)c3ccccc3C2(N)c2ccccc21 (stereo unspecified)	> 100 µM (inactive)	> 100 µM (inactive)	> 100 µM (inactive)	> 100 µM (inactive)	> 100 µM (inactive)	> 100 µM (inactive)	> 100 µM (inactive)	> 100 µM (inactive)	> 100 µM (inactive)	> 100 µM (inactive)	> 100 µM (inactive)	> 100 µM (inactive)		> 100 µM (inactive)	> 100 µM (inactive)	> 100 µM (inactive)	> 100 µM (inactive)
CS(=O)(=O)N(N(CCCl)S(=O)(=O)c1ccccc1)S(C)(=O)=O	> 100 µM (inactive)	> 100 µM (inactive)	> 100 µM (inactive)	> 100 µM (inactive)	> 100 µM (inactive)		> 100 µM (inactive)	21.3 µM (inactive)	38.5 µM (inactive)	> 100 µM (inactive)		> 100 µM (inactive)	> 100 µM (inactive)	> 100 µM (inactive)	17.7 µM (inactive)	> 100 µM (inactive)	> 100 µM (inactive)

— ChEMBL document CHEMBL1201862, “PubChem BioAssay data set” (2004)
